Columns and labels:
Assay type in all cases: cell-based, human
[1] = test system: RBCs of healthy whole blood; test: RBC deformability (Elongation Index, LORRCA ektacytometry), ex vivo TBHP oxidation of healthy whole blood; settings: for EI over vehicle control, both ½ EImax and EImax: healthy donor 2, single amino acid treatments
Text: Whole blood from healthy African American and/or Hispanic donors was obtained from Research Blood Components, LLC based on the following donor selection criteria: Adult age (between 18 and 50 years), normal BMI (<30), and absence of other confounding clinical conditions. Whole blood from SCD donors were obtained from BioIVT based on the following donor selection criteria: Patients with genotypes HbSS, HbSC, HbS/β^0 and at least 1-2 months gap since last blood transfusion. Whole blood was shipped on ice on the same day as blood draw. Upon receipt, the blood sample was aliquoted and stored in the refrigerator until used for studies.
RBC deformability measurements were conducted with the Laser Optical Rotational Red Cell Analyzer (LORRCA) from RR Mechatronics in a temperature-controlled environment (37° C.). Briefly, an even layer of RBCs suspended in polyvinylpyrrolidone (PVP) is subjected to shear stress gradient (0.3 to 30 Pa) through two concentric cylinders and the resulting changes in RBC shape or deformability are measured by a laser beam diffraction pattern. The captured images of RBC shape in response to increasing shear stress are then analyzed by the LORRCA program to calculate Elongation Index (EI).
Healthy RBCs have higher deformability ≥0.5 EI and SCD RBCs have lower deformability or EI values as studied by LORRCA ektacytometry in the field. […] The induced hemolysis model in this disclosure involves use of tert-butyl hydroperoxide (TBHP) to lower EI of RBCs.
The ex vivo hemolysis study disclosed here involves overnight treatment of whole blood with vehicle as a control and specific amino acids followed by rapid oxidation (5 min) with TBHP. Method for oxidation of whole blood with tert-butyl hydroperoxide has been used in prior literature (Diederich L, et al, Front Physiol. 2018 May 11; 9:332). RBC deformability or shape changes are then measured with LORRCA ektacytometry.
Whole blood aliquots stored in the fridge were brought up to room temperature while gently shaking on a rocker at low speed for an hour to ensure gradual and uniform suspension of red blood cells prior to deformability measurements. Vehicle control used in the study was 1× Dulbecco's […]) and amino acids disclosed herein were added (at either final 10× or 2.5 mM concentration as indicated) to corresponding vehicle and amino acid treatment conditions. The samples were then incubated overnight at 37° C. The next day, 25 μl of whole blood was taken from each treatment condition and added to 5 mL Elon ISO viscous solution from RR Mechatronics. The sample was inverted 15-20 times to ensure proper mixing of the treated RBCs with the Elon ISO solution followed by loading the sample on LORRCA and capturing RBC deformability or shape measurements over the applied shear gradient. The remaining whole blood treatments were returned to incubator (37° C.) until deformability measurements were completed for all treatments. To the remaining whole blood treatment samples, TBHP solution (5.0-6.0 M in Decane, Sigma) was added at 2.5 mM final concentration from a 100 mM freshly prepared stock and incubated for further 5 min at 37° C. 25 μl of this TBHP-treated sample was immediately removed at the end of the 5 min incubation and added to the Elon ISO solution for RBC deformability measurement after oxidation. Included in the Tables 13-15 are EI measurements at ½ EImax shear stress 1.69 Pa and EImax shear stress 30 Pa from these studies and FIG. 1 captures EI measurements for all shear stress points for the indicated treatment conditions.

HLMVECs = test: Mitochondrial stress test, oxygen consumption rate in HLMVEC/TNF-α model (Seahorse); settings: for Maximal respiration (OCR) relative to TNF Control, Mean % Change: HLMVEC/TNF-α model, 24 h, Seahorse
Method: Cells were incubated at 37° C., 5% CO2 in a humidified incubator. Cells were passaged at least 1-2 times in the complete growth medium every 2-3 days until ready to plate for cell culture studies. Once ready for experiment, HLMVECs were seeded at a density of 6K cells per well of the 96 well optical microplates (Thermofisher) in the complete growth medium described above and the plated cells were incubated for 24 hours at 37° C. in a humidified incubator with 5% CO2. […] The values are published in the Human Metabolome Database (Wishart D S, et al., Nucleic Acids Res. 2007 January; 35:[…]-6) which is hereby incorporated by reference in its entirety. The medium was also supplemented with growth factors & antibiotics from EGM2-MV kit (Lonza) except the kit-provided FBS which was substituted with dialyzed FBS (Hyclone). […] Using the Agilent Seahorse XF Cell Mito Stress Test Kit (103015-100), parameters of mitochondrial function were studied by directly measuring the oxygen consumption rate (OCR) of HLMVECs on the Seahorse Flux Analyzer (Agilent Technologies) following the manufacturer's recommended protocol and prescribed controls in the kit. The co-treatment cell culture medium after 24 h incubation was removed & aliquoted for adhesion & inflammation biomarker analyses as described above and the HLMVECs in the 96-well plate were further incubated at 37° C. in a non-CO2 incubator for 45 minutes to 1 hour in the pre-warmed Seahorse assay medium supplemented with 10 mM glucose and 1 mM pyruvate but without 2 mM L-glutamine to allow unambiguous evaluation of amino acid combinations in the study. Oxygen consumption was measured at the end of incubation by the Seahorse Flux Analyzer. Four replicates for each treatment were processed for Seahorse studies. Mean percent change in maximal respiration is reported. Statistical analysis was done using one-way ANOVA two sample t-test.

sVCAM-1 = test: Soluble VCAM-1 in HLMVEC/TNF-α model (Luminex); settings: for sVCAM-1 expression relative to TNF Control, Mean % Change: 20×HMDB amino acids, 24 h co-treatment
Method: Cells were incubated at 37° C., 5% CO2 in a humidified incubator. Cells were passaged at least 1-2 times in the complete growth medium every 2-3 days until ready to plate for cell culture studies. Once ready for experiment, HLMVECs were seeded at a density of 6K cells per well of the 96 well optical microplates (Thermofisher) in the complete growth medium described above and the plated cells were incubated for 24 hours at 37° C. in a humidified incubator with 5% CO2. […] The values are published in the Human Metabolome Database (Wishart D S, et al., Nucleic Acids Res. 2007 January; 35:D521-6) which is hereby incorporated by reference in its entirety. The medium was also supplemented with growth factors & antibiotics from EGM2-MV kit (Lonza) except the kit-provided FBS which was substituted with dialyzed FBS (Hyclone). […]). […] were run in duplicate and data was normalized to corresponding TNF-α control for respective treatments as specified in the tables. Mean percent change in level of adhesion markers are reported herein. Statistical analysis was done using two sample t-test.

Structure (SMILES) | EI over vehicle control, both ½ EImax and EImax [1] | Maximal respiration (OCR) relative to TNF Control, Mean % Change (HLMVECs; TNF Conc 0.5 ng/mL) [%] | Maximal respiration (OCR) relative to TNF Control, Mean % Change (HLMVECs; TNF Conc 25 ng/mL) [%] | oxygen consumption (HLMVECs; either TNF-α concentration) | oxygen consumption (HLMVECs; higher TNF-α concentration of 25 ng/mL) | effectiveness among all treatment groups, EI and fold change relative to vehicle ([1]; healthy donor 2) | sVCAM-1 expression relative to TNF Control, Mean % Change (sVCAM-1; TNF Conc 0.5 ng/mL) [%] | sVCAM-1 expression relative to TNF Control, Mean % Change (sVCAM-1; TNF Conc 25 ng/mL) [%] | increase in sVCAM-1 level relative to control (sVCAM-1; both TNF-α groups) [%]
CC(=O)N[C@@H](CS)C(=O)O [N-Acetyl Cysteine, N-acetylcysteine] | higher than the vehicle | – | – | – | – | – | – | – | –
NC(=O)CC[C@H](N)C(=O)O [Glutamine, L-glutamine] | higher than the vehicle | −47.7527 | −27.9927 | did not support oxygen consumption | appeared to get worse | least effective | 566.0015 | 755.2941 | > 570
